Assay results as given in patent US20240150346A1, “CLASS OF HETEROAROMATIC COMPOUND, PREPARATION METHOD THEREFOR AND USE THEREOF” (INNOVSTONE THERAPEUTICS LIMITED, priority 2021, published 2024).
Structures can show the parent of a compound that is named as a salt.

The molecules below were run against T1, human-detived receptor TLR8 (Homo sapiens, UniProt Q9NR97) (assay: Assay on agonistic activity for human-detived receptor TLR8 (HEK-Blue hTLR8 cells, HEK-Blue Detection Medium)). Details: 16 h incubation, absorbance at 620 nm.
T1 construct: host or cells: HEK-Blue hTLR8 cells (HEK293-derived reporter line)
T1 sequence (Q9NR97 27-1041): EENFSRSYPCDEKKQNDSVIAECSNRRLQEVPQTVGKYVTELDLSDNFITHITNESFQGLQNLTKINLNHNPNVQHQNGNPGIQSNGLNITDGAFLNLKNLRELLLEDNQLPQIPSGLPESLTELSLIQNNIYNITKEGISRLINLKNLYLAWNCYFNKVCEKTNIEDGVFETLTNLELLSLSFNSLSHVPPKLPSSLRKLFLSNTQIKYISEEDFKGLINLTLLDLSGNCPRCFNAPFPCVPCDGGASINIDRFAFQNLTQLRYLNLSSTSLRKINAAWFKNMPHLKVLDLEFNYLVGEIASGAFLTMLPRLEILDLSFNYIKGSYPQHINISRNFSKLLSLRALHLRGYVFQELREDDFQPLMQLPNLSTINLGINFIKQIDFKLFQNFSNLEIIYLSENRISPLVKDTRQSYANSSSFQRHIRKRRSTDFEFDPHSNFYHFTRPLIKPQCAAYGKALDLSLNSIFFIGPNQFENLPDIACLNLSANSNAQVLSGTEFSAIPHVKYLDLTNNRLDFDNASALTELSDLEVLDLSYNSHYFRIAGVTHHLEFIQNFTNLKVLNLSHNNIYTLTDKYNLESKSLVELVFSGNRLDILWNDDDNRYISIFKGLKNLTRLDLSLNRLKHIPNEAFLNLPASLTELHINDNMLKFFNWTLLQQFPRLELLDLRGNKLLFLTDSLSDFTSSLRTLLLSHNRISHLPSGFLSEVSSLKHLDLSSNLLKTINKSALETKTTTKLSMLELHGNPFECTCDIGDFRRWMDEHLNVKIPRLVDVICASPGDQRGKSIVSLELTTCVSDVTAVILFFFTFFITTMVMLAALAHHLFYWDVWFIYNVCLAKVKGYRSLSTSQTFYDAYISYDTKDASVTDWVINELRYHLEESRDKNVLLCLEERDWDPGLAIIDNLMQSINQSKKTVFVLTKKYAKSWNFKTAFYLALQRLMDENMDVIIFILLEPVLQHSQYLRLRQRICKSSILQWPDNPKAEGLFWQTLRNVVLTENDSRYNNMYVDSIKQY
Assay type: cell-based
Experimental: The assay on the agonistic activity for human-detived receptor TLR7 was performed as that in Test Example 1; • the method for assaying the agonistic activity for the human-detived receptor TLR8 was as follows: HEK-Blue™ hTLR8 cells (InvivoGen, hkb-htlr8) were cultured in a DMEM complete medium (Gibco, 11965-092) containing 10% FBS (Invitrogen, 10099-141c), 1% P/S (Invitrogen, 15140-122), 10 μg/mL Blasticidin (InvivoGen, R210-01), 100 μg/mL Zeocin (InvivoGen, ant-zn), and 100 μg/mL Normocin (InvivoGen, Ant-nr-2). The cells were cultured in an incubator at 37° C. with 5% CO2. When HEK-Blue™ hTLR8 cells reached a growth density of 70%-80%, cell passage was needed.
The agonistic activity for the human-detived receptor TLR8 by HEK-Blue™ hTLR8 cells was assayed by HEK-Blue™ Detection Medium (InvivoGen, hb-det3). First, a bag of HEK-Blue™ Detection Medium powder was completely dissolved, and then filtered through a 0.22 μm filter. Antibiotics were then added until the final concentration was 1% P/S and 100 μg/mL Normocin. HEK-Blue™ Detection Medium was pre-heated to 37° C. in advance on the day of the assay on the activity for the TLR8 receptor, and the temperature was always maintained at 37° C.
The compound powder was dissolved in 100% DMSO (Sigma, D8418-1L) to obtain a 10 mM stock solution, and the compound was completely dissolved by shaking with an oscillator for later use.
The cell culture medium was removed from HEK-Blue™ hTLR8 cells with a growth density of 70-80%. Then, the cells were washed 2-3 times with PBS (Gibco, 10010-031). The cells were digested and then pipetted with a DMEM cell culture medium to a single cell suspension, which was then centrifuged at 1000 rpm for 10 min to collect the cell pellet. […] The cells were counted, diluted to a plating density, and transferred to a 384-well cell culture plate (Corning, 3764). […] After incubation in an incubator at 37° C. for 16 h, the absorbance was read at 620 nm using a microplate reader (PerkinElmer, VICTOR Nivo).
The EC50 of the compound was calculated using the GraphPad Prism 8 software (GraphPad Software, USA). The reading of the negative control well (the well without the compound) was subtracted from the absorbance reading at 620 nm of the compound, and was divided by the ratio of the difference between the positive control (1 μM positive compound) and the negative control well, so that the percentage of the ratio of each well to the ratio of the positive control well (the well treated with 10 μM positive compound), i.e., the percentage of activity, was calculated. Finally, the sigmoidal dose-response (variable slope) curve between the percentage of activity and the concentration of the compound was calculated using the software GraphPad Prism to calculate the EC50 of the compound.

EC50, > 10 µM:
CSc1nc2c(N)nc3ccccc3c2n1Cc1ccc(N2CCN(C)CC2)nc1 [Example 199]
COc1nc2c(N)nc3ccccc3c2n1Cc1ccc(CN2CCCC2)cc1 [Comparative Example 1, 2-methoxy-1-((4-((pyrrolidin-1-yl)methyl)phenyl)methyl)-1H-imidazo[4,5-c]quinolin-4-amine trifluoroacetate, reference compound]
COc1cc(CN(C)C)ccc1Cn1c(SC)nc2c(N)nc3ccccc3c21 [Example 240]
CSc1nc2c(N)nc3ccccc3c2n1Cc1ccc(CN2CCCC2)cc1 [Example 40, 2-(methylthio)-1-(4-(pyrrolidin-1-ylmethyl)benzyl)-1H-imidazo[4,5-c]quinoline-4-amine]
